Source: patent publication US6730792B2, “β3 adrenergic agonists” (Eli Lilly and Company, priority 2000, dated 2004)

Target: T1, human β3 adrenergic receptor (Homo sapiens, UniProt P13945)
T1 construct: expressed in transfected cells; host or cells: DXB-11 Chinese hamster ovary (CHO) cell line, stably transfected (phd expression vector)
Assay: whole cell receptor coupled c-AMP assay, human β3 receptor in CHO cells (EC50, Emax relative to isoproterenol)
Type: cell-based
Method in brief: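 Stably transfected DXB-11 CHO cells (20,000/well) were exposed to compound for 20 min at 37 °C in HBSS/HEPES buffer with 1 mM IBMX, pH 7.4. cAMP was measured by SPA. EC50 came from a four-parameter logistic fit, and Emax is the maximal response as a percentage of isoproterenol's.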

[1] = % intrinsic activity relative to isoproterenol maximal response, average of at least 3 runs, c-AMP in transfected CHO cells
[2] = Emax ± standard error of the mean, average of at least 3 runs except where n = 1, compound tested in the isolated form listed

T1 sequence (P13945 whole entry): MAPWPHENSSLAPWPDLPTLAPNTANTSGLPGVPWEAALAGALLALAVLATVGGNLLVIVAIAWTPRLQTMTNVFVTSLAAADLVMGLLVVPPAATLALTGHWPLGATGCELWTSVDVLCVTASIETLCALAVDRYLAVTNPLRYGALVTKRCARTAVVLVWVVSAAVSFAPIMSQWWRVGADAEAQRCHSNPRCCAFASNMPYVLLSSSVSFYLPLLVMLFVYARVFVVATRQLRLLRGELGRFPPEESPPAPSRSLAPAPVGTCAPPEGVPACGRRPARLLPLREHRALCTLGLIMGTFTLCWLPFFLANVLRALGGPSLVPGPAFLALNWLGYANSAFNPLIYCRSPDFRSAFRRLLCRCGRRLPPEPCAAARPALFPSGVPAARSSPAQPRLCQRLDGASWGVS

| Emax (%) ± SEM [2] | SMILES | also measured |
| --- | --- | --- |
| – | CC(C)(Cc1ccc(Oc2ncccc2C#N)cc1)NC[C@H](O)COc1ccccc1-c1cc2ccccc2o1 [Example 371] | Emax (%) ± SEM [1]: 38.9 ± 3.9% |
| – | CC(C)(Cc1ccc(Oc2ncccc2C(N)=O)cc1)NC[C@H](O)COc1ccccc1-c1cc2ccccc2o1 [Example 372] | Emax (%) ± SEM [1]: 56.3 ± 4.8% |
| – | Cc1ccc(-c2cccc(F)c2OC[C@@H](O)CNC(C)(C)Cc2ccc(Oc3ccc(C#N)cn3)cc2)s1.Cl [Example 427] | Emax (%) ± SEM [1]: 72.4 ± 6.9% |
| 65.7 ± 3.8% | CC(C)(Cc1ccc(Oc2ncccc2C(N)=O)cc1)NC[C@H](O)COc1ccccc1-c1cscn1.Cl [Example 240] | – |
| – | CC(C)(Cc1ccc(Oc2ncccc2C(N)=O)cc1)NC[C@H](O)COc1ccccc1-c1ccco1.Cl [Example 420] | Emax (%) ± SEM [1]: 78.9 ± 2.3% |
| 30.1 ± 2.1% | CC(C)(Cc1ccc(Oc2ncccc2C#N)cc1)NC[C@H](O)COc1ccccc1-c1cc2ccccc2[nH]1 [Example 56] | – |
| 35.9 ± 2.9% | CC(C)(Cc1ccc(Oc2ccc(S(C)(=O)=O)cc2)cc1)NC[C@H](O)COc1ccccc1-c1cscn1.Cl [Example 249] | – |
| 61.4 ± 4.4% | CCOC(=O)c1cccnc1Oc1ccc(CC(C)(C)NC[C@H](O)COc2ccccc2-c2nccs2)cc1 [Example 109] | – |
| 77.4 n = 1% | Cn1ccc(-c2ccccc2OC[C@@H](O)CNC(C)(C)Cc2ccc(Oc3ccc(C(N)=O)cn3)cc2)n1 [Example 67] | – |
| 46.1 ± 4.5% | CC(C)(Cc1ccc(Oc2ncccc2C(N)=O)cc1)NC[C@H](O)COc1ccccc1-n1cccn1.Cl [Example 102] | – |
| 12.1 n = 1% | CC(C)(Cc1ccc(Oc2ccc(C(N)=O)cn2)cc1)NC[C@H](O)COc1cc(Cl)ccc1-c1nnco1 [Example 31] | – |
| 64.4 ± 5.2% | CC(C)(Cc1ccc(Oc2ncccc2Cl)cc1)NC[C@H](O)COc1ccccc1-c1cccs1.O=C(O)C(F)(F)F [Example 178] | – |
| 49.1 ± 2.9% | CC(C)(Cc1ccc(Oc2ccc(C(N)=O)cn2)cc1)NC[C@H](O)COc1ccccc1-c1ccno1 [Example 18] | – |
| 30.3 ± 5.1% | CC(C)(Cc1ccc(Oc2ncccc2C(N)=O)cc1)NC[C@H](O)COc1ccccc1N1CCOCC1.Cl.Cl [Example 78] | – |
| <10% | CC(C)(Cc1ccc(Oc2ncccc2C(N)=O)cc1)NC[C@H](O)COc1ccc(-c2ccno2)cc1 [Example 94] | – |
| <10% | CC(C)(Cc1ccc(Oc2ccc(C(N)=O)cn2)cc1)NC[C@H](O)COc1cccc(-c2cc[nH]n2)c1 [Example 34] | – |
| 74.1 ± 3.3% | CC(C)(Cc1ccc(Oc2ncccc2C#N)cc1)NC[C@H](O)COc1ccccc1-c1cccs1.Cl [Example 51] | – |
| – | CC(C)(Cc1ccc(Oc2ncccc2C#N)cc1)NC[C@H](O)COc1c(F)cccc1-c1ccsc1.Cl [Example 436] | Emax (%) ± SEM [1]: 57.5 ± 12.0% |
| 88.3 ± 8.0% | CC(C)(Cc1ccc(Oc2ccc(Cl)nn2)cc1)NC[C@H](O)COc1ccccc1-c1nccs1.O=C(O)C(F)(F)F [Example 209] | – |
| 83.4 ± 7.2% | CC1(C)COC(c2ccccc2OC[C@@H](O)CNC(C)(C)Cc2ccc(Oc3ccc(C(N)=O)cn3)cc2)=N1 [Example 28] | – |
| 17.5 n = 1% | CC(C)(Cc1ccc(Oc2ccc(C(N)=O)cn2)cc1)NC[C@H](O)COc1ccc(-c2ccno2)cc1 [Example 36] | – |
| – | CC(C)(Cc1ccc(Oc2ncccc2C#N)cc1)NC[C@H](O)COc1ccccc1-c1cccnc1 [Example 390] | Emax (%) ± SEM [1]: 14.4 ± 1.7% |
| 38.4 ± 3.8% | CC(C)(Cc1ccc(Oc2ccc(C(N)=O)cc2F)cc1)NC[C@H](O)COc1ccccc1-c1cscn1.Cl [Example 252] | – |

| Emax (%) ± SEM [2] | SMILES | also measured |
| --- | --- | --- |
| – | Cc1ccc(-c2ccccc2OC[C@@H](O)CNC(C)(C)Cc2ccc(Oc3ccc(C(N)=O)cn3)cc2)s1.Cl [Example 409] | Emax (%) ± SEM [1]: 71.3 ± 3.9% |
| 31.3 n = 1% | CC(C)(Cc1ccc(Oc2ccc(C(N)=O)cn2)cc1)NC[C@H](O)COc1ccccc1-c1ccn[nH]1 [Example 19] | – |
| – | Cc1ccc(-c2cccc(F)c2OC[C@@H](O)CNC(C)(C)Cc2ccc(Oc3ncccc3C#N)cc2)s1.Cl [Example 437] | Emax (%) ± SEM [1]: 72.0 ± 10.5% |
| 38.8 ± 1.4% | CC(C)(Cc1ccc(Oc2ccc(C(N)=O)cn2)cc1)NC[C@H](O)COc1ccccc1-n1ccc(C=O)c1 [Example 274] | – |
| <10% | CC(C)(Cc1ccc(Oc2ncccc2C(N)=O)cc1)NC[C@H](O)COc1cccc(-c2ccno2)c1 [Example 93] | – |
| 24.6 ± 3.8% | CC(C)(Cc1ccc(Oc2ccc(C#N)cn2)cc1)NC[C@H](O)COc1ccccc1-c1cccs1.O=C(O)C(=O)O [Example 285] | – |
| 23.7 ± 10.0% | CC(C)(Cc1ccc(Oc2ccc(C#N)cn2)cc1)NC[C@H](O)COc1ccccc1-c1cc2ccccc2[nH]1 [Example 9] | – |
| 74.4 ± 3.3% | CC(C)(Cc1ccc(Oc2cccnc2C(N)=O)cc1)NC[C@H](O)COc1ccccc1-c1cccs1.O=C(O)C(F)(F)F [Example 196] | – |
| 63.0 ± 3.2% | CC(C)(Cc1ccc(Oc2ccccc2C#N)cc1)NC[C@H](O)COc1ccccc1-c1ccns1.O=C(O)C(F)(F)F [Example 213] | – |
| – | CC(C)(Cc1ccc(Oc2ccc(C#N)cn2)cc1)NC[C@H](O)COc1ccccc1-c1ccco1.Cl [Example 408] | Emax (%) ± SEM [1]: 74.0 ± 6.5% |
| 66.6 ± 5.7% | CC(C)(Cc1ccc(Oc2ccccc2C(N)=O)cc1)NC[C@H](O)COc1ccccc1-c1cscn1.Cl [Example 244] | – |
| 54.5 ± 0.8% | CC(C)(Cc1ccc(Oc2ccc(C(N)=O)nc2)cc1)NC[C@H](O)COc1ccccc1-c1ccon1.Cl [Example 298] | – |
| 32.2 ± 6.5% | COC(=O)c1ccc(Oc2ccc(CC(C)(C)NC[C@H](O)COc3ccccc3-c3ccno3)cc2)nc1 [Example 117] | – |
| 49.5 ± 3.4% | CC(C)(Cc1ccc(Oc2ccc(S(C)(=O)=O)cc2)cc1)NC[C@H](O)COc1ccccc1-c1nccs1 [Example 130] | – |
| – | CC(C)(Cc1ccc(Oc2cccnc2C(N)=O)cc1)NC[C@H](O)COc1ccccc1-c1ccc(C(=O)O)s1 [Example 448] | Emax (% intrinsic activity relative to isoproterenol maximal response, SEM in brackets, c-AMP in transfected CHO cells): 79.9% |
| 52.3 ± 6.6% | CC(C)(Cc1ccc(Oc2ccc(C(N)=O)o2)cc1)NC[C@H](O)COc1ccccc1-c1cscn1.Cl [Example 261] | – |
| 43.3 ± 6.8% | CC(C)(Cc1ccc(Oc2ccc(Cl)cn2)cc1)NC[C@H](O)COc1ccccc1-c1ccno1.O=C(O)C(F)(F)F [Example 169] | – |
| 20.8 ± 8.5% | CC(C)(Cc1ccc(Oc2ccc(C(N)=O)cn2)cc1)NC[C@H](O)COc1ccccc1-c1nc2ccccc2s1 [Example 27] | – |
| – | CC(C)(Cc1ccc(Oc2ccc(C#N)cn2)cc1)NC[C@H](O)COc1c(F)cccc1-c1ccc(Cl)s1.Cl [Example 428] | Emax (%) ± SEM [1]: 75.5 ± 6.9% |
| 50.5 ± 0.8% | CC(C)(Cc1ccc(Oc2ncc(C(F)(F)F)cc2Cl)cc1)NC[C@H](O)COc1ccccc1-c1cscn1.Cl [Example 254] | – |
| – | CC(=O)c1ccc(-c2cccc(F)c2OC[C@@H](O)CNC(C)(C)Cc2ccc(Oc3ccc(C#N)cn3)cc2)s1.O=C(O)C(F)(F)F [Example 429] | Emax (%) ± SEM [1]: 84.7 ± 12.3% |
| 28.9 n = 1% | CC(C)(Cc1ccc(Oc2ccc(C(N)=O)cn2)cc1)NC[C@H](O)COc1cccc(-c2ccno2)c1 [Example 35] | – |
| – | Cc1ccc(-c2ccccc2OC[C@@H](O)CNC(C)(C)Cc2ccc(Oc3ccc(C#N)cn3)cc2)s1.Cl [Example 405] | Emax (%) ± SEM [1]: 64.4 ± 7.1% |
